In patent publication US11596691B2, “Photoswitchable HDAC inhibitors” (The General Hospital Corporation, priority 2013, dated 2023):
“Also recorded” adds a separate entry of the source.

How the values were obtained:
[1] = biological target: T1, HDAC3 (Homo sapiens, UniProt O15379); experiment: Light-dependent HDAC3 biochemical assay (acetyl-lysine tripeptide based on acH4K12); settings: for inhibition of HDAC3 enzymatic activity: in the presence and absence of light
T1 construct: 40 μL of a stock solution of full-length HDAC protein at three times the desired final concentration
Procedure: (§1) Compounds were added to white 96-well plates containing 40 μL of HDAC assay buffer (50 mM HEPES, 100 mM KCl, 0.05% BSA, 0.001% Tween-20 at pH 7.4) by pin transfer. To the assay plate was added 40 μL of a stock solution of full-length HDAC protein at three times the desired final concentration. After addition the plate was centrifuged to mix the solution while removing air bubbles. […] After which, reads were taken every 15 minutes to follow the fluorogenic release of 7-amino-4-methylcoumarin from the substrate resulting from deacetylase and trypsin enzymatic activity. In between reads the LED excitation device was reaffixed on top of the plate ensuring maximum cis-isomer population. In parallel to this, a second plate was prepared identically and measured for activity but this plate was not excited by our device but rather was covered to prevent any ambient light from shining on the plate. Replicate pairs of plates were performed.

[2] = tested on: acetylation of histone H3 Lysine 9; experiment: Acetylation of histone H3 Lysine 9 in live cells (biomarker for HDAC inhibition); format: cell-based; settings: immunofluorescent staining, with/without light
Excerpt: The activity of the compounds in live cells was validated using acetylation of histone H3 Lysine 9 as a biomarker for HDAC inhibition.

[3] = Absorbance spectra; format: physicochemical
Excerpt: Compounds were profiled physically to determine absorbance spectra, solubility and kinetics of photo-isomerization kinetics and thermal relaxation (where applicable). The compounds were then profiled biochemically to determine the HDAC inhibitory profile as a function of light exposure. Finally, selected compounds were profiled in cellular assays for the ability to induce hyperacetylation of histone proteins, which represents a biomarker readout for HDAC inhibition.
Compounds studied include those analogs with a push-pull azobenzene system (BG14, BG18, BG47, BG48 and BG49).
Physical characterization of the prototype inhibitors in PBS confirmed that all compounds strongly absorb light in the blue spectrum with maximum absorbance around 470 nm.

[4] = tested on: MCF7 cells; experiment: L1000 gene expression profiling / GSEA in MCF7 cells; format: cell-based
Procedure: In order to gain more quantitative insights into the specific genes regulated by the presented inhibitors, and to provide further evidence that the BG inhibitors elicit biological responses similar to the closely related, but light-independent HDAC inhibitors a high-throughput gene expression analysis was performed. Expression profiling was performed in quadruplicate using the L1000™ platform (Genometry, Inc.). Specifically MCF7 cells were treated with various compounds and the transcriptional changes were measured as a function of compound concentration, light exposure intensity, and treatment duration relative to the reference HDAC inhibitors CI994 and “Merck60”.
To assess BG14's nature as an HDAC inhibitor beyond its ability to modulate HDAC and histone acetylation levels, Gene Set Enrichment Analysis (GSEA) was performed between BG14 (max concentration, max amount of light) and the known HDAC inhibitor CI-994 (the same concentration) (FIG. 15D). Very remarkably, the Normalized Enrichment Score (NES) of 3.25 indicates a very high degree of similarity between both expression profiles. The identified 177 On-Target Gene List, (landmark genes regulated by light-dependent BG14_trans only), as well as the 68 Off-Target list (landmark genes regulated in absence of light by BG14_cis) were compared to the list of genes regulated by CI-994. […]

[5] = tested on: HDAC1-3; experiment: HDAC IC50 assay with and without 470 nm light exposure; format: biochemical; settings: for change of inhibitory activity against HDAC1-3 on light exposure: with vs without exposure (including 1 hr pre-exposure) to 470 nm light
Procedure: as §1
The LED arrays were connected to a micro controller that was programmed to control individual LEDs, LED rows, or LED columns within the array. The controller allowed for modulation of LED intensity by controlling the on/off timing (PWM) or by directly controlling the supplied voltage. The temporal control was <10 ms. The LEDs and microcontroller were powered optionally by a power supply unit connected to a standard 110 V outlet or by a battery-pack, which allowed for use in a cell culture incubator. The LED array was used as lid to illuminate plates from the top and as a stage to illuminate the plates from the bottom, as required by the experimental setup.

[6] = tested on: HDAC enzyme; experiment: HDAC inhibitory activity as a function of light exposure time; format: biochemical; settings: continuous 470 nm light, measured in 15 min intervals
Procedure: The activation of the photoswitchable inhibitors depends on the light energy and the exposure time (as predicted by our model). […] Following pre-incubation of the HDAC enzyme and respective small molecule inhibitor, the enzyme substrate was added and the assay plate was continuously exposed to light (470 nm). Inhibitory activities were measured in 15 min intervals.

[7] = tested on: acetylation of histone H3 Lysine 9 (H3K9Ac) in MCF7 cells; experiment: H3K9Ac pharmacodynamic marker in MCF7 cells; format: cell-based; settings: for histone acetylation above background: in the absence of light; for acetylation of H3K9 relative to vehicle control: in the presence of light
Excerpt: BG14, BG47 and BG48 were profiled in cell culture to assess cellular activity using acetylation of histone H3 Lysine 9 (H3K9Ac) as a pharmacodynamic marker for HDAC inhibition. […] H3K9 acetylation levels directly correlated with light exposure.

[8] = biological target: T2, HDAC1 (Homo sapiens, UniProt Q13547); experiment: Half-life experiment (residence time on HDAC1 after light exposure); format: biochemical; settings: 520 nM, 1 hour 470 nm light, then dark 4, 8 and 17 hours; estimated
T2 construct: 40 μL of a stock solution of full-length HDAC protein at three times the desired final concentration
Procedure: To directly compare the residence time versus isoform relaxation time BG47 and BG48 were incubated with HDAC1 in alternating columns of a white 96-well plate. Columns 1 and 2 were exposed to 470 nm light (22.9V/0.2 A; 0.1 A per column) from LEDs using our excitation device 17 hours before the assay for 1 hour, resulting in 16 hours of relaxation time before the assay. Columns 3 and 4 were exposed to light 9 hours before the assay for 1 hour providing an 8 hour relaxation period and columns 5 and 6 were exposed 5 hours before the assay providing a 4 hour relaxation time point while columns 11 and 12 were used as controls with no pre-exposure. After the completion of the pre-exposure and relaxation time points a stock solution of trypsin and substrate was added to the plate. The plate was centrifuged and read using a Tecan Safire II every 2 minutes while keeping the plate inside the instrument, eliminating exposure to ambient light.
Both compounds were incubated at 520 nM with HDAC1, exposed for 1 hour of […] light and stored in the dark for 4, 8 and 17 hours, respectively, followed by addition of enzyme substrate. The activity was monitored in reference to unexposed compound with continuous readout measured over 2 hours, estimating a residence half-live of 12-24 hours.

[9] = Thermal relaxation (cis-to-trans) half-life measurement; settings: aqueous vs chloroform

T1 sequence (O15379 whole entry): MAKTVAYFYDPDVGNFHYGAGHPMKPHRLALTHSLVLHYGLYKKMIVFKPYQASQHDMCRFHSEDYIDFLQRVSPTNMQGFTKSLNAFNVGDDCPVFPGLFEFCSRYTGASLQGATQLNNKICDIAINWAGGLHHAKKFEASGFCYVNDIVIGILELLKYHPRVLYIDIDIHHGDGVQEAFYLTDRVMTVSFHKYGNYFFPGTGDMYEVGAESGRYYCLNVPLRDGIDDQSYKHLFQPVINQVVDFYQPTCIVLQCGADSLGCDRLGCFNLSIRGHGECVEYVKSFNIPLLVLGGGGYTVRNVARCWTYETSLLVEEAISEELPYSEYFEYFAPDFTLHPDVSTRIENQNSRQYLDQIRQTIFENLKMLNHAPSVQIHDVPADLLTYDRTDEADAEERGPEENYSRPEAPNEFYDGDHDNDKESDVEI
T1 sequence (Q9Y618 395-489 partner limits assumed): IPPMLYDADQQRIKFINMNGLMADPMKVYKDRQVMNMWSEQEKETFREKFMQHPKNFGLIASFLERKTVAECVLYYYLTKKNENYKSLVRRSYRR
T2 sequence (Q13547 whole entry): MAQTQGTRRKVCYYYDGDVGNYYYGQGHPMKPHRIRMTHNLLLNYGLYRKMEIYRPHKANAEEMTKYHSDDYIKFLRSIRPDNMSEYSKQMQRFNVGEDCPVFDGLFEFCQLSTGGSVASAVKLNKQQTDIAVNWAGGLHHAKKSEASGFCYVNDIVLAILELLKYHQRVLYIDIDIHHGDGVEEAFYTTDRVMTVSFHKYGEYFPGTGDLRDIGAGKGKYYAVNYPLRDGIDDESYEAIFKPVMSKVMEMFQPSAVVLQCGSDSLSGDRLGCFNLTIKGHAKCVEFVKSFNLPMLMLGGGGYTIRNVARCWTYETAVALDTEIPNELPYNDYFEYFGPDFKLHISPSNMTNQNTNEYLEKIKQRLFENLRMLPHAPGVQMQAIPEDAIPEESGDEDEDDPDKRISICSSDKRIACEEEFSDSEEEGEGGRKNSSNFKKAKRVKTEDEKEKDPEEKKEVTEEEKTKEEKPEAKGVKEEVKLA

## CN(C)c1ccc(N=Nc2ccc(C(=O)Nc3ccccc3O)cc2)cc1 [BG49, 4-((4-(dimethylamino)phenyl)diazenyl)-N-(2-hydroxyphenyl)benzamides]
[1]
  inhibition of HDAC3 enzymatic activity: not targeted
[2]
  hyperacetylation of H3K9 relative to DMSO control: statistically significant induced hyperacetylation of H3K9 relative to DMSO control was observed only following light exposure

## Nc1ccccc1NC(=O)c1ccc(N=Nc2ccccc2)cc1 [BG12, N-(2-aminophenyl)-4-(phenyldiazenyl)benzamide]
[3]
  absorbance range: maximally absorbs in the UV range

## CN(C)c1ccc(N=Nc2ccc(C(=O)Nc3ccccc3N)cc2)cc1 [BG14, N-(2-aminophenyl)-4-((4-(dimethylamino)phenyl)diazenyl)benzamide]
[4]; MCF7, absence of light
  transcript levels of L1000 landmark genes: did not show any significant changes in transcript levels
[4]; MCF7, increasing amounts of light
  expression levels of landmark genes: significant changes of expression levels of specific landmark genes
[5]
  change of inhibitory activity against HDAC1-3 on light exposure: Significantly increased activity
[1]
  inhibition of HDAC3 enzymatic activity: potent light-dependent inhibitory activity; also recorded: also inhibits HDAC3
[1]; varying average light exposure
  dependence of HDAC3 inhibitory activity on light exposure: directly proportional to the average light exposure
[6]
  activity change as a function of light exposure time: increased activity with increased exposure time
[3]
  absorbance range: absorbed in the blue range of the visible spectrum
[7]
  histone acetylation above background: No significant histone acetylation above background
  acetylation of H3K9 relative to vehicle control: strongly induced acetylation of H3K9
[7]; with light
  increase of H3K9 acetylation compared among the inhibitors: strongest increase of H3K9 acetylation

## CN(C)c1ccc(N=Nc2ccc(C(=O)Nc3cc(-c4ccccc4)ccc3N)cc2)cc1 [BG48, N-(4-amino-[1,1′-biphenyl]-3-yl)-4-((4-(dimethylamino)phenyl)diazenyl)benzamide]
[5]
  HDAC isoform selectivity: HDAC1/2-selective
  change of inhibitory activity against HDAC1-3 on light exposure: Significantly increased activity
[1]
  inhibition of HDAC3 enzymatic activity: did not inhibit HDAC3 in the presence and absence of light
[8]
  residence time: 720 to 1440 min
[3]
  absorbance range: absorbed in the blue range of the visible spectrum
[7]
  histone acetylation above background: No significant histone acetylation above background
  acetylation of H3K9 relative to vehicle control: strongly induced acetylation of H3K9

## CC(=O)Nc1ccc(C(=O)Nc2ccccc2N)cc1 [CI-994, reference compound]
[5]
  change of inhibitory activity against HDAC1-3 on light exposure: no differential activity
[1]
  inhibition of HDAC3 enzymatic activity: no differential activity

## Nc1ccccc1NC(=O)c1ccc(CNC(=O)OCc2cccnc2)cc1 [MS-275]
[6]
  activity change as a function of light exposure time: Only compound BG14 shows increased activity with increased exposure time

## CN(C)c1ccc(N=Nc2ccc(C(=O)O)cc2)cc1 [DABCYL]
[9]
  thermal relaxation faster than previous measurements in chloroform: approximately 120 ×

## CN(C)c1ccc(N=Nc2ccc(C(=O)Nc3cc(-c4cccs4)ccc3N)cc2)cc1 [BG47, N-(2-amino-5-(thiophen-2-yl)phenyl)-4-((4-(dimethylamino)phenyl)diazenyl)benzamide]
[5]
  HDAC isoform selectivity: HDAC1/2-selective
  change of inhibitory activity against HDAC1-3 on light exposure: Significantly increased activity
[1]
  inhibition of HDAC3 enzymatic activity: did not inhibit HDAC3 in the presence and absence of light
[8]
  residence time: 720 to 1440 min
[3]
  absorbance range: absorbed in the blue range of the visible spectrum
[7]
  histone acetylation above background: No significant histone acetylation above background
  acetylation of H3K9 relative to vehicle control: strongly induced acetylation of H3K9

## O=C(CCCCCCC(=O)Nc1ccccc1)NO [SAHA]
[6]
  activity change as a function of light exposure time: Only compound BG14 shows increased activity with increased exposure time

## Nc1ccccc1NC(=O)c1ccc(N=Nc2ccc(C(=O)O)cc2)cc1 [BG19, 4-((4-((2-aminophenyl)carbamoyl)phenyl)diazenyl)benzoic Acid]
[3]
  absorbance range: maximally absorbs in the UV range

## CN(C)c1ccc(N=Nc2ccc(C(=O)Nc3ccccc3O)cc2)cc1 [BG18, 4-((4-(dimethylamino)phenyl)diazenyl)-N-(2-hydroxyphenyl)benzamides]
[5]
  change of inhibitory activity against HDAC1-3 on light exposure: Significantly increased activity
[3]
  absorbance range: absorbed in the blue range of the visible spectrum
